Data as given in patent US20250228850A1, “COMBINATION OF A CXCR7 ANTAGONIST WITH AN S1P1 RECEPTOR MODULATOR” (Idorsia Pharmaceuticals Ltd., priority 2019, published 2025).

Tests used:
[1] = tested on: lymphocyte count in peripheral blood; test: Dose finding of fingolimod in healthy mice, lymphocyte count in peripheral blood; format: in vivo, mouse (C57BL/6)
Experimental: In parallel to the measurement of target engagement of COMPOUND, a second pilot experiment is performed. Healthy female C57BL/6 receive fingolimod at different doses in the range from 0.01 to 0.3 mg/kg, once daily (q.d.). The goal is to assess the dose-effect relationship of fingolimod on lymphocyte count in peripheral blood (which is an established biomarker to monitor pharmacological activity of S1P1 receptor modulators) in this strain of mouse over 24 h.

MOG-induced EAE mice [2] = test: Monotherapy efficacy experiment in MOG-induced EAE model (preventive setting); format: in vivo, mouse (C57BL/6)
Experimental: Female C57BL/6 mice are immunized with an emulsion of MOG in complete Freund's adjuvant (CFA) and pertussis toxin (day 0). A total of 150 μg of MOG is injected per mice at two sites subcutaneously in each flank of the abdomen. Mice are injected intraperitoneally with pertussis toxin a second time, 2 days after the first injection (day 2). Within 9 to 14 days, mice develop signs of paralysis which will be graded on a scale from 0 to 5 assessing the tail and limbs defined as: 0=no clinical sign of EAE, 0.5=end tail paralyzed or one limb weakness, 1=tail paralyzed or two limbs weakness, 1.5=tail paralyzed and one hind limb weakness, 2=tail paralyzed and bilateral partial hind limb paralysis, 2.5=tail paralyzed and unilateral complete hind limb paralysis, 2.75=score of 2.5+unilateral partial hind limb paralysis, 3=complete bilateral hind limb paralysis, 3.25=3+unilateral partial forelimb paralysis, 3.5=3+unilateral complete forelimb paralysis, 4=complete paralysis (moribund) and, 5=death or euthanized.
The disease progression follows a chronic progressive course with no remission.
It consists of four treatment groups: • 1. Vehicle (water) b.i.d., from day 0 • 2.
Clinical scores are assessed on a daily basis and disease development is compared between vehicle-treated mice and mice receiving COMPOUND. The cumulative disease score is calculated for each mouse by summing all the daily clinical scores over the 29-days study period. The experiment is terminated at day 29, 1 to 4 hours post dosing. […] CXCL12 plasma concentrations are determined using a commercial quantikine ELISA mouse CXCL12/SDF1c kit from R&D systems, according to manufacturer's instructions.
Groups of 10 mice are dosed orally starting at the day of disease induction (day 0). It consists of two treatment groups: • 1. Vehicle (0.5% Methylcellulose/0.5% Tween® 80) b.i.d., from day 0 • 2. Fingolimod (0.03 mg/kg) q.d.+Vehicle q.d., from day 0
Clinical scores are assessed on a daily basis and disease development is compared between vehicle-treated mice and mice receiving fingolimod. The cumulative disease score is calculated for each mouse by summing all the daily clinical scores over the 27-days study period. The experiment is terminated at day 27.

MOG-induced EAE mice [3] = test: Combination efficacy experiment in the MOG-induced EAE model (therapeutic setting); format: in vivo, mouse (C57BL/6)
Experimental: The combination efficacy experiment is performed in the same mouse EAE model as described for the pilot experiments.
Groups of 10 mice are dosed orally starting just before the onset of disease (day 7). It consists of four treatment groups: • 1. Vehicle (0.5% Methylcellulose/0.5% Tween® 80) b.i.d., from day 7 • 2. Fingolimod (0.03 mg/kg) q.d.+Vehicle q.d., from day 7 • 3.
Clinical scores are assessed on a daily basis and disease development is compared between vehicle-treated mice and mice receiving the different treatments. The experiment is terminated at day 16 or day 17. Hematology parameters, including lymphocyte count, are measured at the termination of the experiment. […] CXCL12 plasma concentrations are determined using a commercial quantikine ELISA mouse CXCL12/SDF1c kit from R&D systems, according to manufacturer's instructions.

[4] = tested on: cuprizone-induced demyelination mice; test: Cuprizone-induced demyelination model with cuprizone withdrawal, Experiment 2; format: in vivo, mouse (C57BL/6); conditions: week 5 to week 7; COMPOUND 100 mg/kg b.i.d., fingolimod 0.3 mg/kg q.d.
Experimental: Male C57BL/6 mice are exposed to a 0.2% cuprizone diet for six weeks and then switched to control food for one more week. Groups of 8-9 mice are dosed orally starting after five weeks of cuprizone exposure. It consists of three treatment groups: • 1. Vehicle (0.5% Methylcellulose/0.5% Tween® 80) b.i.d., from week 5 to week 7 • 2. Fingolimod (0.3 mg/kg) q.d.+Vehicle q.d., from week 5 to week 7 • 3. […] Hematology parameters, including lymphocyte count, are measured at the termination of the experiment, one hour after the last dosing. […] Brain samples are isolated and fixed for histopathological and immunohistochemistry examinations to assess the degree of demyelination (Luxol Fast Blue for myelin staining).

patients = conditions: cited from earlier work
[5] = tested on: lymphocyte count in peripheral blood; test: Dose finding of siponimod in healthy SJL/J mice, alone and with COMPOUND; format: in vivo, mouse (SJL/J); conditions: siponimod 0.3 mg/kg q.d. oral, healthy female SJL/J mice
Experimental: In a pilot experiment, healthy female SJL/J mice are dosed orally for 2 to 3 days with siponimod at different doses in the range from 0.03 to 1 mg/kg, once daily. The goal is to assess the dose-effect relationship of siponimod on lymphocyte count in peripheral blood (which is an established biomarker to monitor pharmacological activity of S1P1 receptor modulators) in this strain of mouse over 24 h.

SMILES | lymphocyte count reduction over 24 h ([1]; fingolimod 0.03 mg/kg q.d., healthy female C57BL/6) | lymphocyte count reduction over 24 hours ([1]; fingolimod 0.3 mg/kg q.d.) | plasma CXCL12 levels (MOG-induced EAE mice [2]; fingolimod 0.03 mg/kg q.d. from day 0) | overall extent of EAE disease, cumulative disease scores over the 27-days study (MOG-induced EAE mice [2]; fingolimod 0.03 mg/kg q.d. oral from day 0 (preventive)) | lymphocyte count in peripheral blood (MOG-induced EAE mice [3]; fingolimod 0.03 mg/kg q.d. from day 7, at termination) | efficacy on the clinical scores of the disease (MOG-induced EAE mice [3]; from day 7 (just before onset), COMPOUND 100 mg/kg b.i.d., fingolimod 0.03 mg/kg q.d., combination effect from day 14 onwards) | spontaneous remyelination in the corpus callosum one week after CPZ withdrawal [4] | time for lymphocyte counts to return to the normal range after stopping therapy (patients; fingolimod, human) | time remaining in the blood with pharmacodynamic effects (decreased lymphocyte counts) following the last dose (patients; fingolimod, human) | lymphocyte count reduction over 24 h [5] | persistence of residual pharmacodynamics effects (lowering of peripheral lymphocyte count) after the last dose (patients; siponimod, human) | time remaining in the blood after stopping therapy (patients; siponimod, human) | patients whose lymphocyte counts returned to the normal range (patients; siponimod, within 10 days of stopping therapy)
CCCCCCCCc1ccc(CCC(N)(CO)CO)cc1 [fingolimod, 2-amino-2-[2-(4-octylphenyl)ethyl]-propane-1,3-diol, reference compound] | partial efficacy | fully efficacious | not associated with an increase | exhibits efficacy | reduction | minimal | no effect | 1-2 months | up to 2 months |  |  |  | 
CCc1cc(/C(C)=N/OCc2ccc(C3CCCCC3)c(C(F)(F)F)c2)ccc1CN1CC(C(=O)O)C1 [siponimod, 1-(4-[1-[(E)-4-Cyclohexyl-3-trifluoromethyl-benzyloxyimino]-ethyl]-2-ethyl-benzyl)-azetidine-3-carboxylic acid] |  |  |  |  |  |  |  |  |  | full efficacy | 3-4 weeks | up to 10 days | 90 % of patients
